Test results published in BindingDB's records for doi:10.7270/Q2MC8XNQ (Burnham Center For Chemical Genomics, 2012).

Target: T1, Sentrin-specific protease 1 (Homo sapiens, UniProt Q9P0U3)
T1 sequence (Q9P0U3 whole entry): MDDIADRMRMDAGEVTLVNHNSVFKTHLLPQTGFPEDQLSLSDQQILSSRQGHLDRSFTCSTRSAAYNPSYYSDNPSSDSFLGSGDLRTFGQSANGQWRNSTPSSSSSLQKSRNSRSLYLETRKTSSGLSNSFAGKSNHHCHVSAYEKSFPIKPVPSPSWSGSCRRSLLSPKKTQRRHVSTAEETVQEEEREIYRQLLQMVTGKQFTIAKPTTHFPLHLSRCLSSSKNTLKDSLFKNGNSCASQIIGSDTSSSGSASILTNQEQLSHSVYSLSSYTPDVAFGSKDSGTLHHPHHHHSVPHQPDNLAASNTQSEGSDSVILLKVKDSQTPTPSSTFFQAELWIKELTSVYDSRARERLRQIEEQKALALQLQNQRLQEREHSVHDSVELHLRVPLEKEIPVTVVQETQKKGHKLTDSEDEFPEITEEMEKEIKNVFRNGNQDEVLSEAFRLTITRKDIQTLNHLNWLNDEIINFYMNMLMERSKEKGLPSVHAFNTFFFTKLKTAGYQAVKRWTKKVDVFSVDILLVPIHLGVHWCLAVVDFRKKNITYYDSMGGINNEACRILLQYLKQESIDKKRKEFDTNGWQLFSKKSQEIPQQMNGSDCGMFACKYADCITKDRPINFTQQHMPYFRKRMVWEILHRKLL

`COc1nccnc1NS(=O)(=O)c1ccc(NC(=S)NC(=O)c2ccc(F)cc2)cc1` [4-[3-(4-Fluoro-benzoyl)-thioureido]-N-(3-methoxy-pyrazin-2-yl)-benzenesulfonamide] was tested. Which IC50 did it give?
The IC50 was 11.6 µM.

For `O=C(Cc1cccc2ccccc12)NC(NC(=S)Nc1ccccc1Cl)C(Cl)(Cl)Cl` (stereo unspecified) [2-(1-naphthyl)-N-[2,2,2-trichloro-1-({[(2-chlorophenyl)amino]carbonothioyl}amino)ethyl]acetamide], which IC50 is on record?
The IC50 was 8.36 µM.

`O=C1NC(=S)N/C1=C/c1cccc([N+](=O)[O-])c1O` [(5E)-5-[(2-hydroxy-3-nitrophenyl)methylidene]-2-sulfanylideneimidazolidin-4-one] was tested. Which IC50 did it give?
Its IC50 is greater than 80 µM.

Which IC50 does the source give for `CC1(C)CC(=O)C2Sc3ccccc3N=C2C1` (stereo unspecified) [2,2-Dimethyl-2,3-dihydro-1H,10H-phenothiazin-4-one] here?
The IC50 was 29 µM.

`O=C1CC(=Nc2ccc(Cl)cc2)C(=O)N1c1ccc(Cl)cc1` [1-(4-chlorophenyl)-3-[(4-chlorophenyl)amino]pyrrole-2,5-dione] was tested. Which IC50 did it give?
The IC50 was 21 µM.

With `O=C1CC(=O)c2cccc3cccc1c23` [3-hydroxy-1H-phenalen-1-one] as the molecule, how does the IC50 read?
Its IC50 is 13.1 µM.

`N#CC1C(=N)Oc2cc(Nc3ccccc3)ccc2C1c1ccncc1` (stereo unspecified) [2-amino-7-anilino-4-pyridin-4-yl-4H-1-benzopyran-3-carbonitrile] was tested. Which IC50 did it give?
The IC50 was 41.9 µM.

For `COc1ccc(C=Nn2c(O)csc2=S)cc1Br` [3-[(E)-(3-bromo-4-methoxyphenyl)methylideneamino]-2-sulfanylidene-4-thiazolidinone], which IC50 is on record?
Its IC50 is 19.3 µM.

For `Nc1ccc2c(c1)C(N=O)c1cc([N+](=O)[O-])ccc1-2` (stereo unspecified) [N-(2-azanyl-7-nitro-fluoren-9-ylidene)hydroxylamine], which IC50 is on record?
The IC50 was 18.1 µM.

With `O=NC1c2cc([N+](=O)[O-])ccc2-c2cc(Cl)c(NC(=O)C(F)(F)F)cc21` (stereo unspecified) [MLS002707326] as the molecule, how does the IC50 read?
The IC50 was 12.5 µM.

How did the IC50 turn out when `O=C1CCCC2=Nc3cc(Cl)ccc3SC12` (stereo unspecified) [MLS000333002] was run?
The IC50 was 13.7 µM.

Which IC50 does the source give for `Nc1cc([N+](=O)[O-])ccc1Nc1ccccc1` [SMR000271721] here?
Its IC50 is greater than 80 µM.

`O=[N+]([O-])c1ccc(C/N=N/c2ccccc2)cc1` was tested. Which IC50 did it give?
Its IC50 is 21.5 µM.

`O=C(O)c1ccc(N=NCc2cccc3nccnc23)cc1` [4-[(2E)-2-(5-quinoxalinylmethylidene)hydrazinyl]benzoic acid] was tested. Which IC50 did it give?
The IC50 was 15.1 µM.

For `CC(=O)Oc1ccc(-n2c(O)c3c(c2O)C(C(=O)c2ccc(Cl)cc2)N2CCCC32)cc1` (stereo unspecified) [Acetic acid 4-[4-(4-chloro-benzoyl)-1,3-dioxo-octahydro-pyrrolo[3,4-a]pyrrolizin-2-yl]-phenyl ester], which IC50 is on record?
The IC50 was 7.5 µM.

How did the IC50 turn out when `COc1ccc(-n2c(O)c3c(c2O)C(C(=O)c2ccccc2)N2CCCC32)cc1` (stereo unspecified) [MLS000762485] was run?
The IC50 was 31 µM.

`COc1ccc(OC)c(CCNC(=O)c2ccc3c(=O)[nH]c4c(C(=O)NC(C)C)sc(=S)n4c3c2)c1` was tested. Which IC50 did it give?
Its IC50 is greater than 80 µM.

`Oc1c2c(c(O)n1-c1ccccn1)C(c1ccccc1)C=CC2c1ccccc1` (stereo unspecified) [4,7-diphenyl-2-pyridin-2-yl-3a,4,7,7a-tetrahydroisoindole-1,3-dione] was tested. Which IC50 did it give?
Its IC50 is 10.8 µM.

`CCOC1=CC(=Cc2sc(=O)[nH]c2N)C=CC1=O` was tested. Which IC50 did it give?
The IC50 was 10.9 µM.

How did the IC50 turn out when `CCOC(=O)/C(C#N)=C/C=C1\C=Cc2ccccc2N1CC` [(E,4E)-2-cyano-4-(1-ethyl-2-quinolinylidene)-2-butenoic acid ethyl ester] was run?
Its IC50 is greater than 80 µM.

Which IC50 does the source give for `CN(C)c1ccc(C=NNC(=O)C(=O)CC2=NC3(CCCC3)Cc3ccccc32)cc1` [MLS000589038] here?
Its IC50 is 10.1 µM.

How did the IC50 turn out when `CCOc1cc(C=c2[nH]c3n(c2=O)CCCCC=3)ccc1O` [MLS000774439] was run?
The IC50 was 9.57 µM.

How did the IC50 turn out when `CCN1C(=O)c2cccc3c(NC(=O)c4cccc(-n5c(O)ccc5O)c4)ccc1c23` [3-(2,5-dioxopyrrolidin-1-yl)-N-(1-ethyl-2-oxobenzo[cd]indol-6-yl)benzamide] was run?
Its IC50 is 17.9 µM.

How did the IC50 turn out when `CCN(CC)CCNc1cccc2sc3ccccc3c(=O)c12` [SMR001821489] was run?
Its IC50 is greater than 80 µM.

`CC1=C(C#N)C(=O)NC(=O)C1=NNc1ccc(Br)cc1C(=O)O` [MLS001213177] was tested. Which IC50 did it give?
Its IC50 is 18.1 µM.

With `COc1ccc(-n2c(O)c3c(c2O)C(C(=O)c2ccc(Cl)cc2)N2CCCC32)cc1` (stereo unspecified) as the molecule, how does the IC50 read?
Its IC50 is 5.56 µM.
